According to ChEMBL document CHEMBL4308901, “Synthesis and biological evaluation of BMS-986120 and its deuterated derivatives as PAR4 antagonists” (Bioorg Med Chem, 2019):

Species: Mus musculus
Assay: Antiplatelet activity in ICR mouse platelet rich plasma assessed as inhibition of PAR4-AP-induced platelet aggregation pretreated for 5 mins followed by PAR4-AP addition by aggregometric analysis
Assay type: functional

Compound	IC50
COc1cc(OCc2nc(N3CCOCC3)sc2C)c2cc(-c3cn4nc(OC)sc4n3)oc2c1	7.8 nM
[2H]C(Oc1cc(OC)cc2oc(-c3cn4nc(OC)sc4n3)cc12)c1nc(N2CCOCC2)sc1C (stereo not drawn)	14.5 nM
[2H]C([2H])([2H])Oc1cc(OCc2nc(N3CCOCC3)sc2C)c2cc(-c3cn4nc(OC([2H])([2H])[2H])sc4n3)oc2c1	6.97 nM
[2H]C([2H])([2H])Oc1nn2cc(-c3cc4c(OCc5nc(N6CCOCC6)sc5C)cc(OC)cc4o3)nc2s1	8.74 nM
[2H]C([2H])([2H])Oc1cc(OCc2nc(N3CCOCC3)sc2C)c2cc(-c3cn4nc(OC)sc4n3)oc2c1	6.3 nM
[2H]C(Oc1cc(OC([2H])([2H])[2H])cc2oc(-c3cn4nc(OC)sc4n3)cc12)c1nc(N2CCOCC2)sc1C (stereo not drawn)	8.15 nM
[2H]C(Oc1cc(OC([2H])([2H])[2H])cc2oc(-c3cn4nc(OC([2H])([2H])[2H])sc4n3)cc12)c1nc(N2CCOCC2)sc1C (stereo not drawn)	9.45 nM
[2H]C(Oc1cc(OC)cc2oc(-c3cn4nc(OC([2H])([2H])[2H])sc4n3)cc12)c1nc(N2CCOCC2)sc1C (stereo not drawn)	7.69 nM
